# Test results: patent US20130252818A1, “AMORPHOUS BIOINORGANIC IONIC LIQUID COMPOSITIONS COMPRISING AGRICULTURAL SUBSTANCES” (priority 2012, published 2013)
# Counter-ions that a name gives are not always drawn. Like-named read-outs stand apart in the source and are kept apart here.
# Columns and labels:
# [1] = Solubility of the IL in solvents
# [2] = Storage under Ar, observed over 6 months for crystalline domains; format: physicochemical; details: stored under Ar
# [3] = Thermogravimetric analysis (TGA), decomposition temperature; format: physicochemical
# Experimental: Melting points of all purchased materials were determined in a capillary tube using a MeI-Temp apparatus (Barnstead/Thermo Scientific). NMR data sets were collected on a 300 MHz Bruker instrument using sample concentrations of 50 mM. Infrared spectra were measured using an Avatar 360 FT-IR ESP (ThermoElectron-Nicolet, Waltham, Mass.) equipped with a Smart DuraSampllR horizontal attenuated total reflectance (HATR) accessory. Raman spectra were measured using a Thermo-Nicolet 470 FTIR with Nd:YAG laser excitation and HgCdTe detector. Viscosity was measured on 1 mL samples with a Viscolab 3000 viscometer (Cambridge Viscosity, Medford, Mass.). Samples were heated to 90° C., except when otherwise specified, and viscosity was recorded in 2 degree increments between 50 and 90° C. with 8 min equilibration at each temperature. Thermal characterization was carried out using a Q100 DSC and a Q500 TGA (both from TA Instruments, New Castle, Del.). DSC was performed using a 5-10 mg sample in a 40 μL aluminum crucible sealed in the glovebox. A temperature range from −60 to 150° C. was scanned twice, at ramp rates of 5° C./min and 10° C./min. TGA was performed under N2 atmosphere over a temperature range from 25-800° C. with a ramp rate of 20° C. per minute and a sample size of 10 mg.
# [4] = system: Pseudomonas aeruginosa biofilms; experiment: Challenge of established biofilms with test compounds, CFU count; format: cell-based; details: 72 h biofilm, 6 h challenge
# Staphylococcus aureus = experiment: Biofilm growth on IL-coated culture plates; format: cell-based; details: wells coated with 100 uL IL, 72 h
# Experimental: (§1) A second example of clear, colorless antimicrobial films formed by compositions described herein was shown with an assay that involved coating culture plates with IL and observing the biofilm growth on the coated surface. […] Aliquots of 100 μL of either a Staphylococcus aureus culture, an E. coli culture, or a Pseudomonas aeruginosa culture were added to each coated well, the plate was fed with fresh media every 24 h, and cells were counted after 72 h, as described above. The number of cells in the treated wells was below the limit of detection of the assay of 1000 cfu/mL, as compared with normal cell counts for the LB control wells, indicating high antimicrobial efficacy of the IL coating. Because bacteria colonize a surface prior to barnacles and other organisms, proof of antibacterial effects is key to showing anti-biofouling potential in aquatic environments.
# E. coli = experiment: Biofilm growth on IL-coated culture plates; format: cell-based; details: wells coated with 100 uL IL, 72 h
# Experimental: as §1
# Pseudomonas aeruginosa = experiment: Biofilm growth on IL-coated culture plates; format: cell-based; details: wells coated with 100 uL IL, 72 h
# Experimental: as §1
# [5] = Shelf life estimate by model-free isoconversional kinetic analysis of TGA data; format: physicochemical
# Experimental: Zinc(II) chloride (273 mg, 2 mmol) was added to a scintillation vial that had been heated, then cooled under vacuum and charged with dry argon. Phenoxybenzamine hydrochloride (340.3 mg, 1 mmol) was added to the vial with a stir bar and the mixture was degassed with stirring at 60° C. The vial was filled with argon, sealed with a cap, and stirred for 24 h at 80° C. to produce a clear, colorless glass. […] NMR spectra for ^1H and ^13C were obtained in d6-acetone. […] Spectra of phenoxybenzamine-HCl were performed with 0, 0.25, 0.5, 1.0, 1.5, 2.0, and 5.0 molar equivalents of ZnCl2 to observe this effect. Thermal decomposition after a 3 h incubation of the IL at a constant 120° C. was 2.7% of the starting mass. In contrast, the phenoxybenzamine hydrochloride starting material loses 38% of its mass after a similar incubation. The IL was soluble (>1 mM) in acetone, water and phosphate buffered to pH 6.0. The IL was insoluble (<1 mM) in toluene and tetrahydrofuran. […] Model-free isoconversional kinetic analysis (for more detail, see: Doyle, C. D., J. Appl. Polym. Sci. 1962, 6:639-642; and Long, G. T. et al., J. Pharm. Sci. 2002, 91:800-809) of TGA data was used to estimate increases in shelf life due to IL formulation for phenoxybenzamine hydrochloride and phenoxybenzamine-HCl—(ZnCl2)2. The onset of mass loss indicates loss of HCl during cyclization of the 2-chloroethylamine group, the most common decomposition pathway for phenoxybenzamine hydrochloride (for more detail, see: Adams, W. P. et al., Int. J. Pharm. 1985, 25:293-312). Formulation as an ionic liquid improves the shelf life (time to reach 5% decomposition) of solid phenoxybenzamine hydrochloride at 20° C. by 7.7-fold to 15.8 years. […] The manufacturer's shelf life for 10 mg phenoxybenzamine hydrochloride tablets is 2 years, or 730 days, and the calculated value for solid phenoxybenzamine hydrochloride (5% decay at 20° C.) was 750 days (2.05 years), indicating good agreement of the calculation with actual shelf life. The most common decomposition pathway for phenoxybenzamine hydrochloride is loss of hydrochloride during cyclization of the 2-chloroethylamine group (for more detail, see: Adams, W. P. et al., Int. J. Pharm. 1985, 25:293-312) and we expect this is the earliest mass loss observed by TGA. The IL phenoxybenzamine-HCl—(ZnCl2)2 is a stabilized, amorphous formulation with shelf life greater than that of the most common crystalline form.
# [6] = Solubility at 1 mM in unbuffered water by eye and UV-Vis after filtration; details: for A268 of the filtrate: 0.45 μm syringe filter
# Experimental: Solubility of phenoxybenzamine hydrochloride and phenoxybenzamine-HCl—(ZnCl2)2 at 1 mM in unbuffered water (pH 6.5) was evaluated by eye and by UV-Vis spectroscopy after filtration through a 0.45 μm syringe filter.
# [7] = format: physicochemical; details: 3 h incubation at constant 120° C.
# [8] = TGA under N2, ramp 20° C. per minute
# [9] = solid, 20° C., calculated from TGA kinetics
# [10] = 1 mM in unbuffered water (pH 6.5)
molecule,measurement,setting,value
CNC(=C[N+](=O)[O-])NCCSCc1ccc(CN(C)C)o1.Cl.[Cl][Zn][Cl].[Cl][Zn][Cl],Solubility,[1]; acetone,> 1000 µM
same,Appearance of crystalline domains on storage,[2],no crystalline domains appeared
same,ΔTdec (increase in decomposition temperature relative to HCl starting material),[3],+14.1 °C
"CCCC[N+]1(C)CCCC1.O=S(=O)([N-]S(=O)(=O)C(F)(F)F)C(F)(F)F [BMP-NTf2, 1-butyl-1-methypyrrolidinium bistriflimide]",Cell count remaining in biofilm,[4]; neat,2×10^5
CC(C)(C)CC(C)(C)c1ccc(OCCOCC[N+](C)(C)Cc2ccccc2)cc1 [Benzethonium-Cl—(ZnCl2)2],Number of cells in treated wells,Staphylococcus aureus,< 1000 cfu/mL
same,Number of cells in treated wells,E. coli,< 1000 cfu/mL
same,Number of cells in treated wells,Pseudomonas aeruginosa,< 1000 cfu/mL
CN1[C@@H]2CC[C@H]1CC(OC(=O)C(O)c1ccccc1)C2 (stereo partly shown) [Homatropine-HCl—(ZnCl2)2],Appearance of crystalline domains on storage,[2],no crystalline domains appeared
same,Tdec (decomposition temperature),[3],274.5 °C
same,ΔTdec (increase in decomposition temperature relative to HCl starting material),[3],+7.8 °C
CN(C)CCCN1c2ccccc2CCc2ccccc21.Cl.[Cl][Zn][Cl].[Cl][Zn][Cl] [Imipramine-HCl—(ZnCl2)2],Appearance of crystalline domains on storage,[2],no crystalline domains appeared
same,ΔTdec (increase in decomposition temperature relative to HCl starting material),[3],+21.4 °C
same,Tdec (decomposition temperature),[3]; [8],267.2 °C
[Cl-].[Na+] [NaCl],Cell count remaining in biofilm,[4]; 5 M in LB,1×10^6 cells
CC(COc1ccccc1)N(CCCl)Cc1ccccc1.Cl.[Cl][Zn][Cl].[Cl][Zn][Cl] (stereo not shown) [Phenoxybenzamine-HCl—(ZnCl2)2],Solubility,[1]; acetone,> 1000 µM
same,Solubility,[1]; phosphate buffered to pH 6.0,> 1000 µM
same,Solubility,[1]; tetrahydrofuran,< 1000 µM
same,Solubility,[1]; toluene,< 1000 µM
same,Solubility,[1]; water,> 1000 µM
same,Appearance of crystalline domains on storage,[2],no crystalline domains appeared
same,ΔTdec (increase in decomposition temperature relative to HCl starting material),[3],+45.1 °C
same,Tdec (decomposition temperature),[3]; [8],259.0 °C
same,Improvement of shelf life over standard formulation in syrup and propylene glycol (4-day refrigerator shelf life),[5],1500 fold
same,Improvement of shelf life over solid phenoxybenzamine hydrochloride,"[5]; 20° C., time to 5% decomposition",7.7 fold
same,Shelf life (time to reach 5% decomposition),[5]; [9],15.8 years
same,Solubility evaluated by eye,[6]; 1 mM (0.34 mg/mL) in unbuffered water (pH 6.5),completely dissolve
same,A268 of the filtrate relative to phenoxybenzamine hydrochloride solution,[6]; [10],5 ×
same,A268 of the filtrate,[6]; [10],1.56
"[Cl-].[Cl-].[Zn+2] [ZnCl2, Zinc(II) chloride]",Cell count remaining in biofilm,[4]; 1.8 M in LB,4×10^5
CC(C)(C)CC(C)(C)c1ccc(OCCOCC[N+](C)(C)Cc2ccccc2)cc1 [benzethonium chloride],"Viable dispersed cell count (conservative estimate, some exposures)","[4]; 78 mM in LB, precipitate impeded quantification",5×10^4 cfu/mL
"CC(COc1ccccc1)N(CCCl)Cc1ccccc1 (stereo not shown) [phenoxybenzamine hydrochloride, reference compound]",Shelf life (5% decay),[5]; [9],750 days
same,Shelf life (time to reach 5% decomposition),[5]; [9],2.05 years
same,"Thermal decomposition, % of the starting mass lost",[7],38%
same,A268 of the filtrate,[6]; [10],0.30
Ethambutol-(HCl)2—(ZnCl2)2,Appearance of crystalline domains on storage,[2],no crystalline domains appeared
same,Tdec (decomposition temperature),[3]; [8],216.5 °C
Procainamide-HCl—(ZnCl2)2,Appearance of crystalline domains on storage,[2],no crystalline domains appeared
